Laboratory results: PubChem BioAssay (NCI)
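Following 48 hours of exposure in 96-well plates, responses at five concentrations were used to interpolate endpoints linearly. Abbreviation: GI50, concentration required for 50% inhibition of growth. TGI: concentration producing complete growth inhibition.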

Tests used:
Test in all cases: growth of human tumour cells (NCI), 48 h
[1] = tested on: CCRF-CEM leukemia
[2] = tested on: COLO 205 colon
[3] = tested on: HOP-62 NSCLC
[4] = tested on: HS 578T breast
[5] = tested on: LOX IMVI melanoma
[6] = tested on: MALME-3M melanoma
[7] = tested on: SR leukemia
[8] = tested on: TK-10 renal
[9] = tested on: A549 NSCLC
[10] = tested on: NCI-H522 lung

| SMILES | TGI [1] [µM] | TGI [2] [µM] | TGI [3] [µM] | TGI [4] [µM] | TGI [5] [µM] | TGI [6] [µM] | TGI [7] [µM] | TGI [8] [µM] | TGI [9] [µM] | TGI [10] [µM] | GI50 [9] [µM] | GI50 [2] [µM] | GI50 [3] [µM] | GI50 [4] [µM] | GI50 [6] [µM] | GI50 [10] [µM] | GI50 [7] [µM] | GI50 [8] [µM] | GI50 [1] [µM] | GI50 [5] [µM] |
| --- | --- | --- | --- | --- | --- | --- | --- | --- | --- | --- | --- | --- | --- | --- | --- | --- | --- | --- | --- | --- |
| OCC1NC(CO)C(O)C1O (stereo not given) | > 100 | > 100 | > 100 | > 100 | > 100 | > 100 | > 100 | > 100 | – | – | – | – | – | – | – | – | – | – | – | – |
| C=C(CN(C)C)C(=O)c1ccccc1 | 3.17 | 3.03 | > 58.3 | > 100 | 15.4 | 11.1 | > 60.5 | 13.4 | 53 | 1.69 | – | – | – | – | – | – | – | – | – | – |
| O=S1(=O)C[C@H](NCc2ccccc2)[C@H](NCc2ccccc2)C1 | > 100 | > 100 | > 100 | > 100 | > 100 | > 100 | > 100 | > 100 | > 100 | 68.2 | – | – | – | – | – | – | – | – | – | – |
| CCOP(=O)(OCC)C(Cc1c[nH]c2ccccc12)C(=O)O (stereo not given) | > 100 | > 100 | > 100 | > 100 | > 100 | – | > 100 | > 100 | > 100 | > 100 | – | – | – | – | – | – | – | – | – | – |
| C[n+]1c(-c2ccc(/C=N\Nc3ccnc(N/N=C/c4ccc(-c5cn6ccsc6[n+]5C)cc4)n3)cc2)cn2ccsc21 | 63.8 | 66.6 | 51.6 | > 100 | – | 85.4 | 64.8 | > 100 | > 100 | > 100 | – | – | – | – | – | – | – | – | – | – |
| COc1ccc(CCn2ccc(C)n2)c(OC)c1 | > 100 | > 100 | > 100 | > 100 | > 100 | > 100 | – | > 100 | > 100 | – | – | – | – | – | – | – | – | – | – | – |
| Nc1ccc(C2(c3ccc(N)cc3)C3CC4CC(C3)CC2C4)cc1 | 25.3 | – | 29.3 | – | 39.7 | – | > 100 | 32.2 | – | 30.5 | – | – | – | – | – | – | – | – | – | – |
| CC(C)N(CCNc1nc(C(Cl)(Cl)Cl)nc2cc(Cl)ccc12)C(C)C | – | 3.61 | 3.12 | 3.99 | – | 3.98 | 3.11 | 2.88 | 3.15 | 2.63 | 1.67 | 1.8 | 1.6 | 1.56 | 1.83 | 1.16 | 0.926 | 1.46 | – | – |
| Nc1nc(N)c(N=Nc2ccccc2)c(=O)[nH]1 | > 100 | > 100 | > 100 | – | > 100 | 69.6 | > 100 | > 100 | > 100 | > 100 | – | – | – | – | – | – | – | – | – | – |
| Cc1ccc(S(=O)(=O)NCCCSCCN)cc1 | > 100 | > 100 | – | > 100 | > 100 | – | > 100 | > 100 | > 100 | > 100 | – | – | – | – | – | – | – | – | – | – |
| CC(=O)OC/C=C\Cn1ncc(=O)[nH]c1=O | 50.4 | 37.9 | 43.9 | > 100 | 13.3 | 31.5 | – | – | 58.9 | 32.4 | – | – | – | – | – | – | – | – | – | – |
| CC=C/C=C/[C@@H]1O[C@](O)([C@H](CC)C(=O)NC/C=C/C=C(\C)[C@@H](OC)[C@@H](C)[C@@H]2O[C@H](/C=C/C=C/C=C(\C)C(=O)c3c(O)cc[nH]c3=O)[C@H](O)[C@@H]2O)[C@H](O)[C@H](O)C1(C)C | – | – | > 100 | > 100 | – | > 100 | > 100 | > 100 | > 100 | > 100 | – | – | – | – | – | – | – | – | – | – |
| COc1ccc(/C=C/c2cc(O)cc(OC3OC(CO)C(O)C(O)C3O)c2)cc1O (stereo not given) | > 100 | > 100 | > 100 | > 100 | > 100 | > 100 | > 100 | > 100 | > 100 | > 100 | – | – | – | – | – | – | – | – | – | – |
| CC(O)C1(O)C(O)CC(OC2c3cc4c(c(O)c3[C@@H]3C[C@@]2(C)OC32C=c3cc[nH]c3=N2)C(=O)c2cccc(O)c2C4=O)OC1C (stereo not given in full) | 1.72 | 1.97 | 5.37 | 5.87 | 3.17 | 2.15 | 2.36 | 7.32 | 4.4 | 1.09 | – | – | – | – | – | – | – | – | – | – |
| O=C(Nc1ccc(C(F)(F)F)cc1[N+](=O)[O-])C(=O)Nn1c(=S)[nH]c2ccccc2c1=O | > 100 | > 100 | > 100 | – | > 100 | > 100 | > 100 | > 100 | > 100 | > 100 | – | – | – | – | – | – | – | – | – | – |
| O=Nn1c2ccccc2c2ccccc21 | > 100 | 33.2 | > 100 | > 100 | > 100 | > 100 | – | > 100 | > 100 | > 100 | – | – | – | – | – | – | – | – | – | – |
| CCOC(=O)CCCc1cc(=O)c2c(C)c3[nH]c4ccc(Cl)cc4c3c(C)c2[nH]1 | > 100 | > 100 | 44.4 | – | > 100 | 73.2 | > 100 | 48.8 | 43.5 | – | – | – | – | – | – | – | – | – | – | – |
| Fc1ccc(C2CC(c3cccc(Nc4ccncc4)c3)=NN2c2ccccc2)cc1 (stereo not given) | 10.2 | 4.91 | – | 3.8 | 3.02 | 3.16 | 5.67 | 3.75 | – | 3.98 | – | 2.35 | – | 1.81 | 1.6 | 1.81 | 2.17 | 1.99 | 3.22 | 1.66 |
